In the oligonucleotide strings, read from the 5' end, every base follows the letter of its sugar. An asterisk marks phosphorothioate; unmarked linkages are phosphodiester. Other units and linkages are bracketed, terminal groups are in braces. A string of capitals states the bases alone. Where no end group is shown, it is not given here. [ ]: non-standard residue; d: D form. {NH2C6-invAb} = cap: inverted abasic residue carrying an aminohexyl phosphate (attachment handle); [invAb] = inverted abasic unit; m = 2'-O-methyl; f = 2'-fluoro
Legend:
CTNNB1 [1] = assay: In vivo evaluation in mice: liver mRNA knockdown measurement; details: for In vivo mRNA knockdown: mice
Description: (§1) Female CD-1 mice (Charles River) were injected in accordance with either a sequential dosing paradigm or a co-dosing paradigm. In the sequential dosing paradigm, the targeted siRNA (SCE) is dosed at t=0 and the targeted peptide is separately dosed up to 2 hr before the SCE (−2 hr) or up to 24 hr after the SCE (+24 hr). In the co-dosing paradigm, the SCE and peptides are co-formulated and dosed together in the same formulation as a single injection at t=0. The mice were dosed either by intravenous (i.v.) or subcutaneous (s.c.) injection of SCE and peptide. For the i.v. doses, the compounds were injected into the tail vein of the mice. For the s.c. doses, the compounds were injected in the subcutaneous space on the back of the mouse between the shoulder blades. At the indicated harvest times (measured from t=0 when the siRNA was dosed, regardless of when the peptide was dosed), the animals were sacrificed and 3 mm liver punches were collected, preserved in RNAlater (Ambion), and stored at 4° C. Separate 5 mm liver punches were collected, placed in 96-well plates, frozen on dry ice, and stored at −80° C. until use.
The 3 mm liver punches were removed from RNAlater and homogenized in Trizol (Invitrogen) using a bead mill tissue lyser (Qiagen); disruption was performed for two 5-minute cycles at 30 Hz. RNA extraction was performed using 1-bromo-2-chloropropane (Acros Organics) and total RNA was isolated from the aqueous phase using the MagMax RNA isolation method (Ambion). […] TaqMan qPCR analysis was performed with an ABI 7900 Real-Time PCR System using TaqMan Fast Advanced Master Mix (Applied Biosystems). All TaqMan probes and primers for CTNNB1 and PPIB (housekeeping gene) were purchased from Applied Biosystems as pre-validated gene expression assays. Results are calculated by the comparative Ct method, where the difference between the CTNNB1 Ct value and the PPIB Ct value (ΔCt) is calculated and then further normalized relative to the PBS control by taking a second difference (ΔΔCt), as described previously (1).

[2] = Lethality observed on in vivo dosing in mice; set-up: key: *: lethal at this dose
Description: as §1

CTNNB1 [3] = assay: In vitro DMD assay: mRNA silencing enhancement by peptide conjugates after siRNA-IV treatment; type: cell-based; details: primary mouse hepatocytes, siRNA-IV 125 nM baseline
Outline: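 Primary mouse hepatocytes were pretreated 1 h with siRNA-IV at 125 nM, then exposed ~16 h to peptide conjugates across a dose range, washed and held 24 h more. Target mRNA by RT-qPCR, normalized to PPIB (dddCt), expressed as enhancement over siRNA-IV alone relative to untreated cells.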

[4] = siRNA metabolic stability (order stated for FIG. 6); details: order siRNA-I>siRNA-V>siRNA-VI
RISC = target: T1, RISC (Mus musculus, UniProt Q8CJG0); assay: Quantitation of siRNA bound to RISC (RISC loading) in liver; type: in vivo, mice; details: siRNA with vinyl phosphonate vs siRNA-I
T1 construct: from tissue; host or cells: liver of female CD-1 mice (5 mm liver punches)
T1 sequence (Q8CJG0 whole entry): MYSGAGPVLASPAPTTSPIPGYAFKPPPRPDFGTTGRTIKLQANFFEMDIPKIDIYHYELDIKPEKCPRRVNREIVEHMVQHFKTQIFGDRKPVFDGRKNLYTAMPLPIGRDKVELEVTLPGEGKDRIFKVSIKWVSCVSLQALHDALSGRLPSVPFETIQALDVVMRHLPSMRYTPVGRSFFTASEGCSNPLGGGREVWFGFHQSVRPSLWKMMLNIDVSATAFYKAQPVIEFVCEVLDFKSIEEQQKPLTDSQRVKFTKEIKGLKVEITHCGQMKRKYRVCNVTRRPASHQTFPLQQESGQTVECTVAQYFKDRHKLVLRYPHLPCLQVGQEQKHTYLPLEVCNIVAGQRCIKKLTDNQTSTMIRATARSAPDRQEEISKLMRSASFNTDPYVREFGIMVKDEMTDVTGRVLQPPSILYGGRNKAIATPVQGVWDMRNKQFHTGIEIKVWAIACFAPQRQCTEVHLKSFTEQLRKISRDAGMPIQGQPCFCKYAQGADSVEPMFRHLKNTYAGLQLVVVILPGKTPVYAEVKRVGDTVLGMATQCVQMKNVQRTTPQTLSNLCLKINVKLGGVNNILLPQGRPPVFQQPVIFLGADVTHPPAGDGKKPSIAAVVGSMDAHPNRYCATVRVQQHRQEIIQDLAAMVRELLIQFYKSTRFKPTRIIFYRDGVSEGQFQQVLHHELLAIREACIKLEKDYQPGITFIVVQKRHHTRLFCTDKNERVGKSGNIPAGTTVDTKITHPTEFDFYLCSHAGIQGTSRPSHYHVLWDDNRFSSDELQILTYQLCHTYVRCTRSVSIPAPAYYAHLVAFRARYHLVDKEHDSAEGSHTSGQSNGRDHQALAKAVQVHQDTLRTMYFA
Description: as §1, with “use. […]” for “use.”

[5] = TGN-L-siRNA-III 0.5 mg/kg IV, peptide 2 mg/kg IV 15 min after siRNA
[6] = TGN-L-siRNA-III 0.5 mg/kg IV, peptide 10 mg/kg IV 15 min after siRNA
[7] = TGN-L-siRNA-III 0.5 mg/kg IV, peptide 25 mg/kg IV 15 min after siRNA
[8] = TGN-L-siRNA-III 0.25 mg/kg IV, peptide 50 mg/kg IV 15 min after siRNA

## TGN-S-S-SEQ ID NO: 1248 (D) (C[dF][dL][dE][dE][dL][dW][dE][dL][dL][dE][dH][dL][dL]; not fully specified (residue 1); listed as Homo sapiens)
CTNNB1 [1]; [5]
  In vivo mRNA knockdown: 42%
CTNNB1 [1]; [6]
  In vivo mRNA knockdown: 74%
CTNNB1 [1]; [7]
  In vivo mRNA knockdown: 58%
[2]; [7]
  Lethality mark at targeted peptide dose: 25*

## TGN-S-S-SEQ ID NO: 1419 (D) (C[dF][dL][dE][dE][dL][dW]G[dL][dL][dE][dH][dL][dL]; not fully specified (residue 1); listed as Homo sapiens)
CTNNB1 [1]; [5]
  In vivo mRNA knockdown: 43%
CTNNB1 [1]; [6]
  In vivo mRNA knockdown: 78%
CTNNB1 [1]; [7]
  In vivo mRNA knockdown: 76%
[2]; [7]
  Lethality mark at targeted peptide dose: 25*

## TGN-S-S-SEQ ID NO: 1654 (D) (CG[dL][dL][dE][dE][dI][dE][dE][dL][dL][dE][dE]G[dL][dE][dN][dL][dI][dD][dW]G[dN][dS]; not fully specified (residue 1); listed as Homo sapiens)
CTNNB1 [1]; TGN-L-siRNA-III 0.25 mg/kg IV, peptide 2 mg/kg IV 15 min after siRNA
  In vivo mRNA knockdown: 51%
CTNNB1 [1]; TGN-L-siRNA-III 0.25 mg/kg IV, peptide 10 mg/kg IV 15 min after siRNA
  In vivo mRNA knockdown: 72%
CTNNB1 [1]; [8]
  In vivo mRNA knockdown: 65%
CTNNB1 [3]; Targeted peptide dose 25 nM
  In vitro dddCt (vs. baseline SCE dose): −0.39
CTNNB1 [3]; Targeted peptide dose 125 nM
  In vitro dddCt (vs. baseline SCE dose): −1.05
CTNNB1 [3]; Targeted peptide dose 3125 nM
  In vitro dddCt (vs. baseline SCE dose): −1.48
CTNNB1 [3]; Targeted peptide dose 15625 nM
  In vitro dddCt (vs. baseline SCE dose): −1.61
[2]; [8]
  Lethality mark at targeted peptide dose: 50*

## TGN-S-S-SEQ ID NO: 1746 (D): TGN-S-S-peptide; peptide CEALFGKINAIFIGKL ([dC][dE][dA][dL][dF]G[dK][dI][dN][dA][dI][dF][dI]G[dK][dL]; not fully specified (residue 1); also: disulfide to TGN peptide via Cys1; listed as Homo sapiens)
CTNNB1 [1]; [5]
  In vivo mRNA knockdown: 31%
CTNNB1 [1]; [6]
  In vivo mRNA knockdown: 25%
CTNNB1 [3]; Targeted peptide dose 8 nM
  In vitro dddCt (vs. baseline SCE dose): −0.01
CTNNB1 [3]; Targeted peptide dose 40 nM
  In vitro dddCt (vs. baseline SCE dose): −0.09
CTNNB1 [3]; Targeted peptide dose 200 nM
  In vitro dddCt (vs. baseline SCE dose): −0.07
CTNNB1 [3]; Targeted peptide dose 1000 nM
  In vitro dddCt (vs. baseline SCE dose): −0.09
CTNNB1 [3]; Targeted peptide dose 5000 nM
  In vitro dddCt (vs. baseline SCE dose): −0.04

## siRNA-I: CTNNB1 siRNA; passenger SEQ ID NO 1803, guide SEQ ID NO 1804 (sense CUGUUGGAUUGAUUCGAAAUU; guide UUUCGAAUCAAUCCAACAGUU; (1)..(1) aminohexyl phosphate inverted abasic cap; (1)..(2) 2′-O-methyl; (3)..(3) 2′-deoxy-2′-fluoro; (4)..(5) 2′-O-methyl; (6)..(8) 2′-deoxy-2′-fluoro; (9)..(10) 2′-O-methyl; (11)..(12) 2′-deoxy-2′-fluoro; (13)..(15) 2′-O-methyl; (16)..(19) 2′-deoxy-2′-fluoro; (20)..(21) 2′-O-methyl; (20)..(21) phosphorothioate internucleotide linkage; (21)..(21) inverted abasic cap; (1)..(1) 2′-O-methyl; (1)..(2) phosphorothioate internucleotide linkage; (2)..(2) 2′-deoxy-2′-fluoro; (2)..(3) phosphorothioate internucleotide linkage; (3)..(3) 2′-O-methyl; (3)..(4) phosphorothioate internucleotide linkage)
CTNNB1 [1]; peptide within 2 hr before up to 24 hr after siRNA dose
  Effect of timing of peptide dose on activity, FIG. 6: does not significantly change the activity
[4]
  siRNA (metabolic) stability: highly stable

## siRNA-III: CTNNB1 siRNA; passenger SEQ ID NO 1803, guide SEQ ID NO 1806 (vinylPmoeT) (sense CUGUUGGAUUGAUUCGAAAUU; guide TUUCGAAUCAAUCCAACAGUU; vinylphosphonate MOE T; (1)..(1) aminohexyl phosphate inverted abasic cap; (1)..(2) 2′-O-methyl; (3)..(3) 2′-deoxy-2′-fluoro; (4)..(5) 2′-O-methyl; (6)..(8) 2′-deoxy-2′-fluoro; (9)..(10) 2′-O-methyl; (11)..(12) 2′-deoxy-2′-fluoro; (13)..(15) 2′-O-methyl; (16)..(19) 2′-deoxy-2′-fluoro; (20)..(21) 2′-O-methyl; (20)..(21) phosphorothioate internucleotide linkage; (21)..(21) inverted abasic cap; (1)..(1) terminal vinyl phosphate; (1)..(1) 2′-methoxyethoxy; (2)..(21) ribonucleotide unmodified or modified as described for this sequence; (2)..(2) 2′-deoxy-2′-fluoro; (3)..(3) 2′-O-methyl; (4)..(4) …)
RISC
  Time course of RISC loading (FIG. 5): rate of RISC loading: faster RISC loading

## siRNA-V: CTNNB1 siRNA; passenger SEQ ID NO 1803, guide SEQ ID NO 1808 (sense {NH2C6-invAb}-mCmUfGmUmUfGfGfAmUmUfGfAmUmUmCfGfAfAfAmU*mU[invAb]; guide mUfUmUfCmGfAmAfUmCfAmAfUmCfCmAfAmCfAmGmU*mU)
CTNNB1 [1]; longer separation times (4-24 hr post-siRNA dose)
  Activity, FIG. 6: background levels
CTNNB1 [1]; peptide dose times within 2 hr (before or after) the siRNA
  Activity (KD), FIG. 6: ~25%
[4]
  siRNA (metabolic) stability: moderately stable

## siRNA-VI: CTNNB1 siRNA; passenger SEQ ID NO 1803, guide SEQ ID NO 1809 (sense {NH2C6-invAb}-mCmUfGmUmUfGfGfAmUmUfGfAmUmUmCfGfAfAfAmU*mU[invAb]; guide fUfUfUmCfGfAfAmUmCfAfAmUmCfCfAfAmCfAfGmU*mU)
CTNNB1 [1]; DMD with peptide, more unstable siRNA
  Activity, FIG. 6: background levels
[4]
  siRNA (metabolic) stability: more unstable

Source: patent publication US10239957B2, “Peptide containing conjugates for dual molecular delivery of oligonucleotides” (Merck Sharp & Dohme Corp., priority 2013, dated 2019)
